This test concerns the target T1, Tyrosine-protein phosphatase non-receptor type 11 (Homo sapiens, UniProt Q06124).
T1 sequence (Q06124 whole entry): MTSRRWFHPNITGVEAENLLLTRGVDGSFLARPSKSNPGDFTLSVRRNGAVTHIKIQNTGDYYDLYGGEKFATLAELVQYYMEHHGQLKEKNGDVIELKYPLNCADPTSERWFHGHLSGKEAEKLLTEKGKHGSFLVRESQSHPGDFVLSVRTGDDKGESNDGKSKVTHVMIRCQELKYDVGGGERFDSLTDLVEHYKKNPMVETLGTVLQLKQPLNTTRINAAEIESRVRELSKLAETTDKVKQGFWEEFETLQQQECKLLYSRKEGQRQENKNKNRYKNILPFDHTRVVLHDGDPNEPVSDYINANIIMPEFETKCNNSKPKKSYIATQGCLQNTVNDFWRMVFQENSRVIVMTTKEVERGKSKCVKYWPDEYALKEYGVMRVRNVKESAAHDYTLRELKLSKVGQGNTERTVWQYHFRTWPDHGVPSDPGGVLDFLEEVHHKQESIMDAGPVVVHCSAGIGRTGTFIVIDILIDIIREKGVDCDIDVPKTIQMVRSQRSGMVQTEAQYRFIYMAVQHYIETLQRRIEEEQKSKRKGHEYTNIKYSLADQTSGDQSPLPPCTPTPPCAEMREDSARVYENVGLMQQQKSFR
The test is described as follows: Biochemical Assay: The inhibition of SHP2 by compounds of the invention was monitored using the surrogate substrate DiFMUP after protein activation by a peptide bearing two appropriately spaced phosphotyrosine. Full length SHP2 protein (Recombinant HumanSHP-2, E. coli derived Ser2Arg593, N-terminal 6His tag from R&D systems; […]) was incubated with activating peptide, IRSI_2pY (New England ….

As to `Cc1nc(N2CCC3(CCCC3CN)CC2)cc(=O)n1-c1cccc(Cl)c1Cl` (configuration not stated), the IC50 – broadly, the point on the concentration scale where inhibition reaches its midpoint – turned out to be 2100 nM.

As for `Cc1nc(N2CCC(C)(CN)CC2)cc(=O)n1-c1cccc(C(F)(F)F)c1Cl`, the IC50 stood at 1500 nM.
